“Also recorded” adds a separate entry of the source. Where two headings read alike, the source gives them in different places.
Legend:
[1] = system: firefly luciferase mRNA expression in liver, spleen, lungs, heart, kidneys; experiment: Organ expression of firefly luciferase mRNA after intravenous injection in mice; type: in vivo, BALB/c mice; conditions: 6 hours post-dose; for organ in which the highest total flux was measured: intravenous 0.5 μg mRNA
Description: (§1) All procedures used in animal studies conducted at the University of Toronto were approved by Institutional Animal Care and Use committee (IACUC) under protocol number 20012621 and comply with all applicable local, provincial, and federal regulations. Female BALB/c mice (7-8 weeks old) were purchased from Charles River Laboratories and acclimated for 1 to 2 weeks before initiation of the study.
Mice (n=3) were injected intravenously (tail vein) with 0.5 μg of formulated firefly luciferase mRNA in 200 μL. At 6 hours post-dose, mice were injected intraperitoneally with 3 mg D-Luciferin (Thermo Scientific 88291) in 200 μL 1×PBS. 5 minutes later, mice were euthanized and key organs (liver, spleen, kidneys, lungs, and heart) were harvested and immediately imaged on an in vivo imaging system (PerkinElmer, IVIS Spectrum) to measure total bioluminescent flux (photons/second). LNPs formulated with compounds I-2, I-4, I-5, I-6, I-8 were tested for their ability to functionally deliver firefly luciferase mRNA to the major organs (liver, spleen, lungs, heart, kidneys) after intravenous injection and were compared to compounds I-12 and SM-102.

[2] = system: firefly luciferase protein expression; experiment: Intramuscular expression profile of formulated firefly luciferase mRNA in mice (IVIS); type: in vivo, BALB/c mice; conditions: intramuscular firefly luciferase mRNA-LNP
Description: as §1
Mice (n=4) were injected in both quadriceps with 0.5 μg of formulated firefly luciferase mRNA in 50 μL. At various timepoints (6 hours, 24 hours, 48 hours, and 96 hours post-dose), mice were injected intraperitoneally with 3 mg D-Luciferin (Thermo Scientific 88291) in 200 μL 1×PBS. 5 minutes later, mice were anesthetized and imaged on an in vivo imaging system (PerkinElmer, IVIS Spectrum) to measure total bioluminescent flux (photons/second) in each hindlimb (FIG. 2). The area under curve (AUC) for individual hindlimbs was determined with GraphPad Prism 9.

[3] = type: physicochemical
Description: Determination of the apparent pKa of LNPs was carried out using a TNS assay. Briefly, a series of buffers was generated by titrating a solution containing 10 mM citrate, 10 mM phosphate, 10 mM borate, and 150 mM NaCl with 1.0 M HCl. Aliquots of this combined buffer were taken to generate 12 total buffers ranging from pH 4.0 to 9.5 in increments of 0.5 pH. LNPs (diluted to 100 uM of ionizable lipid in distilled water) and 6-(p-toluidino)-2-naphthalenesulfonic acid (TNS, Sigma Aldrich, 60 uM in distilled water) were diluted into these buffers to a final concentration of 9 and 5.45 μM, respectively. The plate was covered and equilibrated at room temperature for 20 min. Fluorescence intensity was determined using a BioTek H1 Synergy plate reader (325 nm excitation/435 nm emission). The raw fluorescence values were fit using GraphPad Prism 8 to determine pKa, which corresponds to the pH value at 50% max fluorescence.

[4] = Pharmacokinetics after intramuscular injection of mRNA-LNPs in mice; type: in vivo, female CD-1 mice; conditions: for Kp / half-life / AUC(0-t) / Cmax: female; for half-life / AUC(0-t) / Cmax: CD-1; for half-life: I-12 estimate not considered accurate, read-out: estimated apparent half-life (t1/2) in plasma (converted); for AUC(0-t): read-out: Overall plasma exposure (AUC0-tlast); for Cmax: read-out: maximum plasma concentration (Cmax); for Overall tissue exposure (AUC0-tlast), liver: mouse liver; for Overall tissue exposure (AUC0-tlast), muscle: mouse muscle; for time of peak plasma level: 12.312 μg Compound I-12 or 12.764 μg Compound I-6; for Overall tissue exposure (AUC0-tlast), spleen: mouse spleen; for detection in urine: mouse urine
Description: Pharmacokinetic studies in mice were conducted according to Transpharmation Canada Ltd. standard operating procedures (SOPs) and accepted scientific practices but was not in accordance with the principles of Good Laboratory Practice (GLP). Two studies were conducted and have been combined for analysis. Their objective was to determine the concentrations of two ionizable lipids, Compound I-12, and Compound I-6, in plasma, muscle, liver, spleen, urine, and feces following intramuscular (IM) injection of each lipid to groups of female CD-1 mice. All animals received an intramuscular injection of one of the lipids, formulated as lipid nanoparticles (LNPs) with mRNA, into the right quadricep. Doses administered IM were 12.312 μg of Compound I-12 and 12.764 μg of Compound I-6, corresponding to 0.5 μg of mRNA formulated in LNPs. Animals in study 1 were group housed in metabolic cages (n=3 per cage) and euthanized at 6 timepoints (3, 6, 12, 24, 48 and 96 hours) over 4 days-post injection for the collection of blood, liver, spleen, and muscle (n=3/time-point). A single pooled urine and feces sample was also collected from each cage at the appropriate time-point. In study 2, animals were housed in shoebox cages and samples (n=4/time-point) were collected at 6, 12, 24, 48, 96 and 168 hours (Compound I-12 and Compound I-6) and at 21 days (I-12 only, n=3) post-dose. A single pooled feces sample was also collected from each cage at the time of cage changes and weighed following terminal collections. Blood samples were divided for bioanalysis and diagnostic testing. Data from both studies was combined for data analysis. Tandem liquid chromatography-mass spectrometry (LC-MS/MS) methods were developed for the quantification of Compound I-12 and Compound I-6 in mouse plasma, muscle, liver, spleen, urine, and feces. The qualified methods were used to determine the concentration of the analytes in each matrix. The pharmacokinetics (PK) parameters for Compound I-12 and Compound I-6 were estimated from the plasma, muscle, liver, and spleen concentration versus time curves for each animal using Phoenix® WinNonlin 8.3 (Certara, Mountainview, CA).

[5] = type: physicochemical; conditions: for time required to have measurable levels of hydrolysis: 2.5 eq. KOH in d4-methanol, 1H NMR
Description: Ionizable lipids including compounds described herein (2 μmol) were hydrolyzed with 2.5 eq. of KOH (200 μL, 0.025 M in d4-methanol) in a 3 mm NMR tube. 1H-NMR was acquired with a 700 MHz Agilent DD2 Spectrometer every 5 min for a total of 180 min. Additionally, spectra were acquired at 24 h, 48 h, 72 h, 144 h, 192 h, and 240 h for I-12, ALC-0315, and DLin-MC3-DMA. Data acquisition started ˜10 min after the start of the reaction due to sample preparation and tune/lock/shim. Ester peaks were integrated using MestReNova and normalized to value at t=0 min. The data series were fitted to a one phase decay exponential following y=e, where k is the rate of hydrolysis.

[6] = CD-1, liver, mouse, IM mRNA-LNP, read-out: tissue/plasma AUC ratio, liver
[7] = CD-1, muscle, mouse, IM mRNA-LNP, read-out: tissue/plasma AUC ratio, muscle
[8] = CD-1, spleen, mouse, IM mRNA-LNP, read-out: tissue/plasma AUC ratio, spleen

CCCCCCCCCCN(CCCCCCCCCC)CCCOC(=O)CCN(CCO)CCC(=O)OCCCN(CCCCCCCCCC)CCCCCCCCCC [Compound I-2]
organ in which the highest total flux was measured [1]: liver | fraction of expression in the spleen compared with SM-102 ([1]; intravenous): higher fraction of expression in the spleen than SM-102

CCCCCCCCCCN(CCCCCCCCCC)CCCOC(=O)CCCN(CCO)CCCC(=O)OCCCN(CCCCCCCCCC)CCCCCCCCCC [Compound I-4]
intramuscular expression (in words) [2]: higher intramuscular expression than DLin-MC3-DMA | Apparent pKa [3]: 6-7 | organ in which the highest total flux was measured [1]: liver | fraction of expression in the spleen compared with SM-102 ([1]; intravenous): higher fraction of expression in the spleen than SM-102

CCCCCCCCCCN(CCCCCCCCCC)CCCCOC(=O)CCCN(CCO)CCCC(=O)OCCCCN(CCCCCCCCCC)CCCCCCCCCC [Compound I-5]
intramuscular expression (in words) [2]: higher intramuscular expression than DLin-MC3-DMA | Apparent pKa [3]: 6-7 | organ in which the highest total flux was measured [1]: spleen | fraction of expression in the spleen compared with SM-102 ([1]; intravenous): higher fraction of expression in the spleen than SM-102

CCCCCCCCCCN(CCCCCCCCCC)CCCOC(=O)CCCCN(CCO)CCCCC(=O)OCCCN(CCCCCCCCCC)CCCCCCCCCC [Compound I-6]
intramuscular expression (in words) [2]: higher intramuscular expression than DLin-MC3-DMA; also recorded: highest intramuscular expression of all compounds tested | Apparent pKa [3]: 6-7 | Kp [4, 6]: 46 | Kp [4, 7]: 962 | Kp [4, 8]: 59 | half-life ([4]; mouse plasma, IM mRNA-LNP): 15.3 h | AUC(0-t) ([4]; mouse plasma, IM mRNA-LNP): 1030 ng·h/mL | Cmax ([4]; mouse plasma, IM mRNA-LNP): 108 ng/mL | Overall tissue exposure (AUC0-tlast), liver ([4]; IM mRNA-LNP): 47.0 µg·h/g | Overall tissue exposure (AUC0-tlast), muscle ([4]; IM mRNA-LNP): 994 µg·h/g | time of peak plasma level ([4]; mouse plasma, IM mRNA-LNP): 3 h | Overall tissue exposure (AUC0-tlast), spleen ([4]; IM mRNA-LNP): 61.1 µg·h/g | detection in urine ([4]; IM mRNA-LNP): Neither Compound I-12 nor Compound I-6 were detected in urine | expression compared with SM-102 in spleen and liver ([1]; intravenous): higher expression than SM-102 in the spleen but not in the liver | expression in organs among the compounds related to this disclosure ([1]; intravenous): highest expression in all organs | fraction of expression in the spleen compared with SM-102 ([1]; intravenous): higher fraction of expression in the spleen than SM-102

CCCCCCCCCCN(CCCCCCCCCC)CCCCOC(=O)CCCCN(CCO)CCCCC(=O)OCCCCN(CCCCCCCCCC)CCCCCCCCCC [Compound I-7]
intramuscular expression (in words) [2]: higher intramuscular expression than DLin-MC3-DMA | Apparent pKa [3]: 6-7

CCCCCCCCCCN(CCCCCCCCCC)CCCC(=O)OCCCN(CCO)CCCOC(=O)CCCN(CCCCCCCCCC)CCCCCCCCCC [Compound I-8]
in vitro degradation rate, faster than Compound I-4 ([5]; 10 mM): ~50% | intramuscular expression (in words) [2]: higher intramuscular expression than DLin-MC3-DMA | Apparent pKa [3]: 6-7 | organ in which the highest total flux was measured [1]: liver | fraction of expression in the spleen compared with SM-102 ([1]; intravenous): higher fraction of expression in the spleen than SM-102

CCCCCCCCCCN(CCCCCCCCCC)CCNC(=O)CCN(CCO)CCC(=O)NCCN(CCCCCCCCCC)CCCCCCCCCC [Compound I-12]
time required to have measurable levels of hydrolysis [5]: 10 days | Kp [4, 6]: 50 | Kp [4, 7]: 236 | Kp [4, 8]: 28 | half-life ([4]; mouse plasma, IM mRNA-LNP): 295 h | AUC(0-t) ([4]; mouse plasma, IM mRNA-LNP): 13800 ng·h/mL | Cmax ([4]; mouse plasma, IM mRNA-LNP): 348 ng/mL | Overall tissue exposure (AUC0-tlast), liver ([4]; IM mRNA-LNP): 694 µg·h/g | Overall tissue exposure (AUC0-tlast), muscle ([4]; IM mRNA-LNP): 3244 µg·h/g | plasma AUC0-tlast, fold greater than Compound I-6 ([4]; mouse plasma, IM mRNA-LNP): ~13 fold | time of peak plasma level ([4]; mouse plasma, IM mRNA-LNP): 6 h | Overall tissue exposure (AUC0-tlast), spleen ([4]; IM mRNA-LNP): 391 µg·h/g | detection in urine ([4]; IM mRNA-LNP): Neither Compound I-12 nor Compound I-6 were detected in urine | excreted in feces ([4]; mouse, after 21 days post-dose): Approximately 18% | organ in which the highest total flux was measured [1]: spleen

CCCCC/C=C\C/C=C\CCCCCCCCC(CCCCCCCC/C=C\C/C=C\CCCCC)OC(=O)CCCN(C)C [DLin-MC3-DMA]
time required to have measurable levels of hydrolysis [5]: 10 days

CCCCCCCCCCCOC(=O)CCCCCN(CCO)CCCCCCCC(=O)OC(CCCCCCCC)CCCCCCCC [SM-102, reference compound]
time to complete degradation (base-catalyzed hydrolysis) ([5]; 10 mM): ≤ 180 min | organ in which the highest total flux was measured [1]: liver

ALC-0315
time required to have measurable levels of hydrolysis [5]: 10 days
